# Measurements taken from US9814704B2, “Substituted pyrrolo[2,3-b]pyridines as MLK inhibitors” (The University of Rochester, priority 2008, dated 2017).
# pIC50: −log10 of the molar value. Structures can show the parent of a compound that is named as a salt. Where two headings read alike, the source gives them in different places.
# Biological target: MLK3 (Homo sapiens (Human), UniProt Q16584)
# Assay: Radiometric Filter Plate MLK3 Assay
# Format: biochemical
# Conditions: read-out: MK3 IC50
# Procedure: Radiometric Filter Plate MLK3 Assay
# After a twenty minute incubation, the reactions were washed through filter plates and read on a scintillation counter. Results are shown in Table 4 below, in which +++ indicates ≦0.1 μM, ++ indicates >0.1 μM and ≦1 μM, and + indicates >1 μM.
# [1] = 200 ng (130 nM) MLK3, 1 μM inactive MKK7b, 2 μM cold ATP (Km), 33P ATP, twenty minute incubation
# Sequence of MLK3 (Q16584 whole entry): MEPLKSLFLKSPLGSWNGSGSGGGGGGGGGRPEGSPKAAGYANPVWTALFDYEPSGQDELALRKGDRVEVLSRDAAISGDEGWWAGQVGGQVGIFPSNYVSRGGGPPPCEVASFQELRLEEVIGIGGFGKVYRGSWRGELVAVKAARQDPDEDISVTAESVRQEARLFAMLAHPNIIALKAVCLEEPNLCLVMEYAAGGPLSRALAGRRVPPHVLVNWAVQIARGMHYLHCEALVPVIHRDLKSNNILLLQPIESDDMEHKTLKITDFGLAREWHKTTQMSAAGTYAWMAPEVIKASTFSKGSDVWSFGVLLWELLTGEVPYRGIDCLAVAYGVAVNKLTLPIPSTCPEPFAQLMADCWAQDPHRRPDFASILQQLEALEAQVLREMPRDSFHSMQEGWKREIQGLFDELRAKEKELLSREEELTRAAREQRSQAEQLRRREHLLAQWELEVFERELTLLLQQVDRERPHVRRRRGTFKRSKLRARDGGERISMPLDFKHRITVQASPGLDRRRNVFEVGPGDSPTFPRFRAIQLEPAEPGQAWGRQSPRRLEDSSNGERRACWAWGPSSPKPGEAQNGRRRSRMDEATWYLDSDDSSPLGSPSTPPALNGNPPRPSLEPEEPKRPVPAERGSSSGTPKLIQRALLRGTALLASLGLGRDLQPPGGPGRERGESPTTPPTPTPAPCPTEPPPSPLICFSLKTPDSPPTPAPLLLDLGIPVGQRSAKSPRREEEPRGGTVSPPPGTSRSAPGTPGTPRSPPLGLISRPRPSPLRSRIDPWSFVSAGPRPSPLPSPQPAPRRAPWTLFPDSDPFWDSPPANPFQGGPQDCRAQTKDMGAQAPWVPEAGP
SMILES,pIC50 [1],pIC50
"Nc1ccc(-c2cnc3[nH]cc(-c4ccc(F)c(Cl)c4)c3c2)cn1 [Example 29, 5-(3-(3-chloro-4-fluorophenyl)-1H-pyrrolo[2,3-b]pyridin-5-yl)pyridin-2-amine]",< 6.00,–
"Nc1ccc(-c2cnc3[nH]cc(-c4ccc5[nH]ccc5c4)c3c2)cc1 [Example 8, 4-(3-(1H-indol-5-yl)-1H-pyrrolo[2,3-b]pyridin-5-yl)aniline]",> 7.00,–
"COc1cc(-c2cnc3[nH]c(=O)n(C4CCCC4)c3n2)ccc1OCCN1CCOCC1 [Example 108, 1-cyclopentyl-6-(3-methoxy-4-(2-morpholinoethoxy)phenyl)-1H-imidazo[4,5-b]pyrazin-2(3H)-one]",–,6.00 to 7.00
"O=c1[nH]c2ncc(-c3ccc(O)cc3)nc2n1-c1ccc2[nH]ccc2c1 [Example 45, 6-(4-hydroxyphenyl)-1-(1H-indol-5-yl)-1H-imidazo[4,5-b]pyrazin-2(3H)-one]",–,6.00 to 7.00
"COc1cc(-c2cnc3[nH]c(=O)n(-c4ccc(N5CCOCC5)nc4)c3n2)cc(OC)c1OC [Example 109, 1-(6-morpholinopyridin-3-yl)-6-(3,4,5-trimethoxyphenyl)-1H-imidazo[4,5-b]pyrazin-2(3H)-one]",< 6.00,–
"Nc1ccc(-c2cnc3[nH]c(=O)n(C4CCCC4)c3n2)cn1 [Example 117, 6-(6-aminopyridin-3-yl)-1-cyclopentyl-1H-imidazo[4,5-b]pyrazin-2(3H)-one]",< 6.00,–
"COc1cc(-c2cnc3c(c2)C(=Cc2cccc(C(N)=O)c2)C(=O)N3)cc(OC)c1OC [Example 132, 3-[2-oxo-5-(3,4,5-trimethoxy-phenyl)-1,2-dihydro-pyrrolo[2,3-b]pyridin-3-ylidenemethyl]-benzamide]",< 6.00,–
"O=c1[nH]c2ncc(-c3ccc4cc[nH]c4c3)nc2n1-c1ccc2[nH]ccc2c1 [Example 56, 1-(1H-indol-5-yl)-6-(1H-indol-6-yl)-1H-imidazo[4,5-b]pyrazin-2(3H)-one]",< 6.00,–
"O=c1[nH]c2ncc(-c3cc(F)c(O)c(F)c3)nc2n1-c1ccc2[nH]ccc2c1 [Example 59, 6-(3,5-difluoro-4-hydroxyphenyl)-1-(1H-indol-5-yl)-1H-imidazo[4,5-b]pyrazin-2(3H)-one]",> 7.00,–
"CN1CCN(C(=O)c2cccc(-c3cnc4[nH]cc(-c5ccc6[nH]ccc6c5)c4c3)c2)CC1 [Example 147, {3-[3-(1H-indol-5-yl)-1H-pyrrolo[2,3-b]pyridin-5-yl]-phenyl}-(4-methyl-piperazin-1-yl)-methanone]",> 7.00,–
"CC(=O)N1CCN(C(=O)c2ccc(-c3cnc4[nH]cc(-c5ccc6[nH]ccc6c5)c4c3)cc2)CC1 [Example 146, 1-(4-{4-[3-(1H-indol-5-yl)-1H-pyrrolo[2,3-b]pyridin-5-yl]-benzoyl}-piperazin-1-yl)-ethanone]",> 7.00,–
"O=c1[nH]c2ncc(-c3ccc(N4CCOCC4)cc3)nc2n1-c1ccc(O)cc1 [Example 116, 1-(4-hydroxyphenyl)-6-(4-morpholinophenyl)-1H-imidazo[4,5-b]pyrazin-2(3H)-one]",–,6.00 to 7.00
"NC(=O)c1ccc(-c2c[nH]c3ncc(-c4cccc(C(=O)N5CCNCC5)c4)cc23)cc1 [Example 152, 4-{5-[3-(piperazine-1-carbonyl)-phenyl]-1H-pyrrolo[2,3-b]pyridin-3-yl}-benzamide, hydrochloride salt]",–,6.00 to 7.00
"O=c1[nH]c2ncc(-c3ccncc3)nc2n1-c1ccc2scnc2c1 [Example 98, 1-(benzo[d]thiazol-5-yl)-6-(pyridin-4-yl)-1H-imidazo[4,5-b]pyrazin-2(3H)-one]",< 6.00,–
"COc1cc(-c2cnc3[nH]cc(-c4ccc5[nH]ccc5c4)c3c2)ccc1OCCN1CCNCC1 [Example 34, 3-(1H-indol-5-yl)-5-(3-methoxy-4-(2-(piperazin-1-yl)ethoxy)phenyl)-1H-pyrrolo[2,3-b]pyridine]",–,> 7.00
"COc1cc(-c2cnc3[nH]cc(-c4ccc5c(ccn5C)c4)c3c2)cc(OC)c1OC [Example 24, 3-(1-methyl-1H-indol-5-yl)-5-(3,4,5-trimethoxyphenyl)-1H-pyrrolo[2,3-b]pyridine]",> 7.00,–
"O=c1[nH]c2ncc(-c3ccc(O)cc3)nc2n1-c1ccc2cn[nH]c2c1 [Example 92, 6-(4-hydroxyphenyl)-1-(1H-indazol-6-yl)-1H-imidazo[4,5-b]pyrazin-2(3H)-one]",< 6.00,–
"O=c1[nH]c2ncc(-c3ccc(O)cc3)nc2n1-c1ccc2scnc2c1 [Example 97, 1-(benzo[d]thiazol-5-yl)-6-(4-hydroxyphenyl)-1H-imidazo[4,5-b]pyrazin-2(3H)-one]",–,6.00 to 7.00
"COc1cc(-c2cnc3c(c2)C2(CCCC2)C(=O)N3)cc(OC)c1OC [Example 121, 5′-(3,4,5-trimethoxyphenyl)spiro[cyclopentane-1,3′-pyrrolo[2,3-b]pyridin]-2′(1′H)-one]",–,6.00 to 7.00
"O=c1[nH]c2ncc(-c3ccc4[nH]ccc4c3)nc2n1-c1ccc2[nH]ccc2c1 [Example 53, 1,6-di(1H-indol-5-yl)-1H-imidazo[4,5-b]pyrazin-2(3H)-one]",–,6.00 to 7.00

SMILES,pIC50 [1],pIC50
"CN(C)c1ccc(-c2cnc3[nH]cc(-c4ccc(N(C)C)nc4)c3c2)cn1 [Example 21, 5,5′-(1H-pyrrolo[2,3-b]pyridine-3,5-diyl)bis(N,N-dimethylpyridin-2-amine)]",–,6.00 to 7.00
"O=c1[nH]c2ncc(-c3cccc(O)c3)nc2n1-c1ccc2[nH]ccc2c1 [Example 54, 6-(3-hydroxyphenyl)-1-(1H-indol-5-yl)-1H-imidazo[4,5-b]pyrazin-2(3H)-one]",–,6.00 to 7.00
"COc1cc(-c2cnc3[nH]cc(-c4ccc(NC(C)=O)cc4)c3c2)cc(OC)c1OC [Example 16, N-(4-(5-(3,4,5-trimethoxyphenyl)-1H-pyrrolo[2,3-b]pyridin-3-yl)phenyl)acetamide]",> 7.00,–
"CNC(=O)c1ccc(-c2c[nH]c3ncc(-c4cc(OC)c(OC)c(OC)c4)cc23)cc1 [Example 164, N-methyl-4-[5-(3,4,5-trimethoxy-phenyl)-1H-pyrrolo[2,3-b]pyridin-3-yl]-benzamide]",< 6.00,–
"CN1CCN(Cc2ccc(-c3cnc4[nH]cc(-c5ccc(C(N)=O)cc5)c4c3)cc2)CC1=O [Example 158, 4-{5-[4-(4-methyl-3-oxo-piperazin-1-ylmethyl)-phenyl]-1H-pyrrolo[2,3-b]pyridin-3-yl}-benzamide]",> 7.00,–
"COc1cc(-c2cnc3c(c2)C(=Cc2cccc(C#N)c2)C(=O)N3)cc(OC)c1OC [Example 134, 3-[2-oxo-5-(3,4,5-trimethoxy-phenyl)-1,2-dihydro-pyrrolo[2,3-b]pyridin-3-ylidenemethyl]-benzonitrile]",< 6.00,–
"Nc1ccc(-c2c[nH]c3ncc(-c4ccc(N)nc4)cc23)cc1 [Example 23, 5-(3-(4-aminophenyl)-1H-pyrrolo[2,3-b]pyridin-5-yl)pyridin-2-amine]",–,6.00 to 7.00
"COc1cc(-c2cnc3[nH]c(=O)n(-c4ccc5[nH]ccc5c4)c3n2)ccc1N [Example 60, 6-(4-amino-3-methoxyphenyl)-1-(1H-indol-5-yl)-1H-imidazo[4,5-b]pyrazin-2(3H)-one]",> 7.00,–
"COc1ccc(-c2cnc3[nH]cc(-c4ccc(C(N)=O)cc4)c3c2)cc1OC [Example 26, 4-(5-(3,4-dimethoxyphenyl)-1H-pyrrolo[2,3-b]pyridin-3-yl)benzamide]",> 7.00,–
"O=c1[nH]c2ncc(-c3ccc(N4CCOCC4)cc3)nc2n1-c1ccc2[nH]ccc2c1 [Example 52, 1-(1H-indol-5-yl)-6-(4-morpholinophenyl)-1H-imidazo[4,5-b]pyrazin-2(3H)-one]",–,6.00 to 7.00
"COc1ccc(-n2c(=O)[nH]c3ncc(-c4ccncc4)nc32)cc1 [Example 71, 1-(4-methoxyphenyl)-6-(pyridin-4-yl)-1H-imidazo[4,5-b]pyrazin-2(3H)-one]",< 6.00,–
"Cc1cc(C)cc(-c2cnc3[nH]c(=O)n(-c4ccc5cn[nH]c5c4)c3n2)c1 [Example 95, 6-(3,5-dimethylphenyl)-1-(1H-indazol-6-yl)-1H-imidazo[4,5-b]pyrazin-2(3H)-one]",< 6.00,–
"COc1cc(-c2cnc3[nH]c(=O)n(-c4cnc5[nH]ccc5c4)c3n2)cc(OC)c1OC [Example 112, 1-(1H-pyrrolo[2,3-b]pyridin-5-yl)-6-(3,4,5-trimethoxyphenyl)-1H-imidazo[4,5-b]pyrazin-2(3H)-one]",> 7.00,–
"COc1cc(-c2cnc3[nH]c(=O)n(-c4ccc5[nH]ccc5c4)c3n2)ccc1OCCN1CCOCC1 [Example 57, 1-(1H-indol-5-yl)-6-(3-methoxy-4-(2-morpholinoethoxy)phenyl)-1H-imidazo[4,5-b]pyrazin-2(3H)-one]",> 7.00,–
"O=c1[nH]c2ncc(-c3ccncc3)nc2n1-c1ccc2[nH]ccc2c1 [Example 44, 1-(1H-indol-5-yl)-6-(pyridin-4-yl)-1H-imidazo[4,5-b]pyrazin-2(3H)-one]",< 6.00,–
"CS(=O)(=O)Nc1ccc(-c2cnc3[nH]cc(-c4ccc5[nH]ccc5c4)c3c2)cc1 [Example 11, N-(4-(3-(1H-indol-5-yl)-1H-pyrrolo[2,3-b]pyridin-5-yl)phenyl)methanesulfonamide]",> 7.00,–
"COc1cc(-c2cnc3[nH]c(=O)n(CC4CC4)c3c2)cc(OC)c1OC [Example 125, 1-(cyclopropylmethyl)-6-(3,4,5-trimethoxyphenyl)-1H-imidazo[4,5-b]pyridin-2(3H)-one]",< 6.00,–
"COc1ccc(-n2c(=O)[nH]c3ncc(-c4ccc(O)cc4)nc32)cc1 [Example 70, 6-(4-hydroxyphenyl)-1-(4-methoxyphenyl)-1H-imidazo[4,5-b]pyrazin-2(3H)-one]",< 6.00,–
"O=c1[nH]c2ncc(-c3ccncc3)nc2n1CC1CC1 [Example 82, 1-(cyclopropylmethyl)-6-(pyridin-4-yl)-1H-imidazo[4,5-b]pyrazin-2(3H)-one]",< 6.00,–
"COc1ccc(-n2c(=O)[nH]c3ncc(-c4ccc(OC)c(OC)c4)nc32)cc1 [Example 69, 6-(3,4-dimethoxyphenyl)-1-(4-methoxyphenyl)-1H-imidazo[4,5-b]pyrazin-2(3H)-one]",< 6.00,–
